From ChEMBL document CHEMBL5291721, “A preclinical secondary pharmacology resource illuminates target-adverse drug reaction associations of marketed drugs” (Nat Commun, 2023)

Key:
[1] = target: Beta-1 adrenergic receptor (Homo sapiens, UniProt P08588); assay type: functional
[2] = target: T1, Type-1 angiotensin II receptor (Homo sapiens, UniProt P30556)
T1 sequence (P30556 whole entry): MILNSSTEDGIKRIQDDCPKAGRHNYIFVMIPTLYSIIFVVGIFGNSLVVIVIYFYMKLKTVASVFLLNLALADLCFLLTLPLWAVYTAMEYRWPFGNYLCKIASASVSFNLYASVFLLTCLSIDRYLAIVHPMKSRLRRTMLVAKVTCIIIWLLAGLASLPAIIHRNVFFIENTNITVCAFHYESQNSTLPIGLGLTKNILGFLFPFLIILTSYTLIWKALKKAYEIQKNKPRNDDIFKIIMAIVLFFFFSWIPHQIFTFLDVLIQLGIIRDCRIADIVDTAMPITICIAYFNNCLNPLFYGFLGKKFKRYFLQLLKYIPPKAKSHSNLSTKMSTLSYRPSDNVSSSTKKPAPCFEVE

[3] = target: T2, Equilibrative nucleoside transporter 1 (Homo sapiens, UniProt Q99808)
T2 sequence (Q99808 whole entry): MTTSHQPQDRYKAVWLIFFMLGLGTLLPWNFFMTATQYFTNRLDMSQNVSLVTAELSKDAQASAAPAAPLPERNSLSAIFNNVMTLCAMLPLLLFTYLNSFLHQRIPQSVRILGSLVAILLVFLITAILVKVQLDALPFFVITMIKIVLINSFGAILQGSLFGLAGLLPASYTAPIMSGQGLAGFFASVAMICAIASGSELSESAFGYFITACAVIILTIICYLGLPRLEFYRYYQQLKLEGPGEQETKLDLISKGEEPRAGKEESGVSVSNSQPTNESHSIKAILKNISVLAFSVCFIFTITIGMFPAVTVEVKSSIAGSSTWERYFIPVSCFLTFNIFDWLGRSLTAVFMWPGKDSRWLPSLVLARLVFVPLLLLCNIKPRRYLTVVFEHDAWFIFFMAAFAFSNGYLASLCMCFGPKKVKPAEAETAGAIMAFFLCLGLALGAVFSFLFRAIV

[4] = target: T3, Alpha-1A adrenergic receptor (Homo sapiens, UniProt P35348); assay type: functional, cell-based
T3 sequence (P35348 whole entry): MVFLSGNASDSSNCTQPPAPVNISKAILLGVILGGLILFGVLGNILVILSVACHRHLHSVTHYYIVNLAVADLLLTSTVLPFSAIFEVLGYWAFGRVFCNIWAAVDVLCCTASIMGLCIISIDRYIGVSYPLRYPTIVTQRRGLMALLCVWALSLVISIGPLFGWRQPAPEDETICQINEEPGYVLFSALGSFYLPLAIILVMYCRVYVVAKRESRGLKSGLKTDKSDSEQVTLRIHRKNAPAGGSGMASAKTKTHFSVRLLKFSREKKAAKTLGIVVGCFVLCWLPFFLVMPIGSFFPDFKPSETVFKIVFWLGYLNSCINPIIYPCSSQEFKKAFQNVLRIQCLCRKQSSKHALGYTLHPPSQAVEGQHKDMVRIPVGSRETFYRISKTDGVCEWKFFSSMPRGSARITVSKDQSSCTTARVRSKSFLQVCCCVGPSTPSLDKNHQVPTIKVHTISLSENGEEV

[5] = target: T4, Alpha-2B adrenergic receptor (Homo sapiens, UniProt P18089)
T4 sequence (P18089 whole entry): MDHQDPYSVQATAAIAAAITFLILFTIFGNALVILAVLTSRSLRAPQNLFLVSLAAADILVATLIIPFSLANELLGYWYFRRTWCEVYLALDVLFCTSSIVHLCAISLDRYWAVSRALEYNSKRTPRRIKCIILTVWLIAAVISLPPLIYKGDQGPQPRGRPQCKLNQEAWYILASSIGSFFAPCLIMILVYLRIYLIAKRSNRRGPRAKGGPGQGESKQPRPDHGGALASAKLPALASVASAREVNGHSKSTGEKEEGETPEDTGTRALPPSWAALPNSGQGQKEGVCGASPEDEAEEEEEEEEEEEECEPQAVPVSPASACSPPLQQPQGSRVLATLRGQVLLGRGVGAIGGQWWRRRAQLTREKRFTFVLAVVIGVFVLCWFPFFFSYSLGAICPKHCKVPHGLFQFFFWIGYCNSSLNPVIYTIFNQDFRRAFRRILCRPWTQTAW

[6] = target: T5, Cholecystokinin receptor type A (Homo sapiens, UniProt P32238)
T5 sequence (P32238 whole entry): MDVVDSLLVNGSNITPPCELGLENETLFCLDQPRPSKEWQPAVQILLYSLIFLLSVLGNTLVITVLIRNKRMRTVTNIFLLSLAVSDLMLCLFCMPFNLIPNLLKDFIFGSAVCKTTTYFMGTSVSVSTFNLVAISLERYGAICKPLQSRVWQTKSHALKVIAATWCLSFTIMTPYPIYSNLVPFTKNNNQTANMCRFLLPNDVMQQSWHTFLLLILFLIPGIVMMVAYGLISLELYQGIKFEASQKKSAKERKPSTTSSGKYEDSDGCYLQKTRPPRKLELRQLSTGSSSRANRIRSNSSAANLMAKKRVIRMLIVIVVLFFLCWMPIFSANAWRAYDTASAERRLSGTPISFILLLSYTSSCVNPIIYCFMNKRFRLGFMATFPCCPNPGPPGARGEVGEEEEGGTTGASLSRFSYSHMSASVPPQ

[7] = target: Voltage-gated inwardly rectifying potassium channel KCNH2 (Homo sapiens, UniProt Q12809); assay type: functional; details: read-out: AC50
Sequence of Voltage-gated inwardly rectifying potassium channel KCNH2 (Q12809 whole entry): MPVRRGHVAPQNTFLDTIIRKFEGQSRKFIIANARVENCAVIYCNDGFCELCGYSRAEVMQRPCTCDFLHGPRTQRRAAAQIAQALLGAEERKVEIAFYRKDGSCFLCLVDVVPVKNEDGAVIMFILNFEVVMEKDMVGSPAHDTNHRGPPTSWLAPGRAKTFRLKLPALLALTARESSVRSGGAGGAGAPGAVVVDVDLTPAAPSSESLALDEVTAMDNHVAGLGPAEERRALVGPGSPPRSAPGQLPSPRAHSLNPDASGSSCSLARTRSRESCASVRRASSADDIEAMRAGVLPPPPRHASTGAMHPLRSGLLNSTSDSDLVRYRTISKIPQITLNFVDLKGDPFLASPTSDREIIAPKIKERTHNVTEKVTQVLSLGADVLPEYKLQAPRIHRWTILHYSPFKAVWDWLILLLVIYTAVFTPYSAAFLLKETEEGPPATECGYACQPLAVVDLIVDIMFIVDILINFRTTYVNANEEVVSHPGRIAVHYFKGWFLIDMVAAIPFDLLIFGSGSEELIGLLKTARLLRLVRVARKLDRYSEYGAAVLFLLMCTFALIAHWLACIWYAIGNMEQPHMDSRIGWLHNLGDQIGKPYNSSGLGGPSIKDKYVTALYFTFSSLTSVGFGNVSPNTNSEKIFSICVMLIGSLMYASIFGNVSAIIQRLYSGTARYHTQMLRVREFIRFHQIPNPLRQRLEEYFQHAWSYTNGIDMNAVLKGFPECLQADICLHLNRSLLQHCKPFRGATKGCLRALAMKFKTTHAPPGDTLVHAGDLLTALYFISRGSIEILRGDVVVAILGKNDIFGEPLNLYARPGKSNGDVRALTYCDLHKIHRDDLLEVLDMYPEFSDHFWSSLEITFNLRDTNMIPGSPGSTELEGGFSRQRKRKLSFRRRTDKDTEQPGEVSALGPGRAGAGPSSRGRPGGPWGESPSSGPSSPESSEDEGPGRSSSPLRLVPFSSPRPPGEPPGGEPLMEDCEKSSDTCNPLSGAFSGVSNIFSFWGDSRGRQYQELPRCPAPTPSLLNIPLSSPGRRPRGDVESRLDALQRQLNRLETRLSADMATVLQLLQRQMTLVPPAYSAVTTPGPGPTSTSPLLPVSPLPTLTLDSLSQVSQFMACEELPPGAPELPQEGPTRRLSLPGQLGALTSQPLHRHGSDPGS

Adenosine receptor A1 = target: T6, Adenosine receptor A1 (Homo sapiens, UniProt P30542)
T6 sequence (P30542 whole entry): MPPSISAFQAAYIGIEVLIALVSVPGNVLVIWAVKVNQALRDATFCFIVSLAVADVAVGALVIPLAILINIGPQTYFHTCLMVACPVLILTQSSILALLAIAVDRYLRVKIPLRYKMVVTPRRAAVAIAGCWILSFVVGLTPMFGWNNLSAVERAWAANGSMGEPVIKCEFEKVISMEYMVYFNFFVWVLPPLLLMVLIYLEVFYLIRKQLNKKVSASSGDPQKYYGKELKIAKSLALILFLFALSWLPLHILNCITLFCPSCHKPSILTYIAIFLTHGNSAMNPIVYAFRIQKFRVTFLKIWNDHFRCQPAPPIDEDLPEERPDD

Cannabinoid receptor 1 = Cannabinoid receptor 1 (Homo sapiens, UniProt P21554); assay type: functional, cell-based
Sequence of Cannabinoid receptor 1 (P21554 whole entry): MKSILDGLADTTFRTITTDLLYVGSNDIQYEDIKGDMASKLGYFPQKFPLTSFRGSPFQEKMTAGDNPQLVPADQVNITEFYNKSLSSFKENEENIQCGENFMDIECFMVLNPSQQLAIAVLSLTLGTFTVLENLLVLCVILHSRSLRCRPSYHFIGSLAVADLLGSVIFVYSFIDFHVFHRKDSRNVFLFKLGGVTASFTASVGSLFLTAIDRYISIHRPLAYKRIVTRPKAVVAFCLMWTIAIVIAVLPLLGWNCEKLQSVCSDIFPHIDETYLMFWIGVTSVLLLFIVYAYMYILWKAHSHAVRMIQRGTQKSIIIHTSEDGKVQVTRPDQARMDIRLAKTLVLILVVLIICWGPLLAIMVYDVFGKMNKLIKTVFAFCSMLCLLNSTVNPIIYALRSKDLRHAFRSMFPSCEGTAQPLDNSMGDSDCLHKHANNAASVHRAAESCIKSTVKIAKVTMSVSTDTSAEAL
Also: assay procedure not described here.

Sequence of Beta-1 adrenergic receptor (P08588 whole entry): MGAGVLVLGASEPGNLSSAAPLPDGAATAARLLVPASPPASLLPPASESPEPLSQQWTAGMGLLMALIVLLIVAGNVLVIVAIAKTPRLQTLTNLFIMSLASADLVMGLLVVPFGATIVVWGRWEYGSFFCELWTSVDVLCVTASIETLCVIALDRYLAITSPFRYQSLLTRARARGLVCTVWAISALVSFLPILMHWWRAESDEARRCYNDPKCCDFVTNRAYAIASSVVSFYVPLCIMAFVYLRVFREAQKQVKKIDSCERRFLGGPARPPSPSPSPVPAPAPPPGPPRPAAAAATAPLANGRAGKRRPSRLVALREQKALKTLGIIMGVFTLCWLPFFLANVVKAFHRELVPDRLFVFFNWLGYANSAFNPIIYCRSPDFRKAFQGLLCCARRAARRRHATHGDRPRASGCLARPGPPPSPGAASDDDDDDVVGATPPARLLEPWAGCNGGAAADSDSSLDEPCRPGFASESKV

Structure (SMILES)	AC50 [1]	AC50 [2]	AC50 [3]	AC50 [4]	AC50 [5]	AC50 [6]	AC50 [7]	AC50 (Adenosine receptor A1)	AC50 (Cannabinoid receptor 1)
CS(=O)(=O)NC(=O)CCC/C=C\C[C@H]1C(=O)C[C@@H](O)[C@@H]1/C=C/[C@@H](O)COc1ccccc1 [SULPROSTONE]	> 30 µM	> 30 µM	> 30 µM	> 30 µM	> 30 µM	> 30 µM	> 30 µM	> 30 µM	> 30 µM
O=C(O)CCCC[C@@H]1SC[C@@H]2NC(=O)N[C@@H]21 [BIOTIN]		> 10 µM	> 10 µM		> 10 µM	> 10 µM	> 30 µM	> 10 µM	
CO/N=C(\C(=O)N[C@@H]1C(=O)N2C(C(=O)O)=C(CSc3nc(C)c(CC(=O)O)s3)CS[C@H]12)c1csc(N)n1 [CEFODIZIME]	> 30 µM	> 30 µM	> 30 µM	> 30 µM	> 30 µM	> 30 µM	> 30 µM	> 30 µM	> 30 µM
CCN1C(=O)NC(c2ccccc2)C1=O (stereo not given) [ETHOTOIN]	> 30 µM	> 30 µM	> 30 µM	> 30 µM	> 30 µM	> 30 µM	> 30 µM	> 30 µM	> 30 µM
OCC(CO)N[C@H]1C[C@](O)(CO)[C@@H](O)[C@H](O)[C@H]1O [VOGLIBOSE]	> 30 µM	> 30 µM	> 30 µM	> 30 µM	> 30 µM	> 30 µM	> 30 µM	> 30 µM	
CCCO[C@H]1[C@@H]([C@@H](COCc2ccc(Cl)cc2)OCc2ccc(Cl)cc2)OC(OCC)[C@@H]1O (stereo not given in full) [CLOBENOSIDE]	> 30 µM	> 30 µM	> 30 µM	> 30 µM	> 30 µM	> 30 µM	> 30 µM	> 30 µM	> 30 µM
COC(=O)c1ccc2c(c1)NC(=O)/C2=C(\Nc1ccc(N(C)C(=O)CN2CCN(C)CC2)cc1)c1ccccc1 [NINTEDANIB]	> 30 µM	> 30 µM	> 30 µM	> 30 µM	11 µM	> 30 µM	9.1 µM	> 30 µM	> 30 µM
OCCN(CCO)c1nc(N2CCCCC2)c2nc(N(CCO)CCO)nc(N3CCCCC3)c2n1 [DIPYRIDAMOLE]		> 30 µM		> 30 µM		> 30 µM	> 30 µM	> 30 µM	
CN(C)CCOCC(=O)NC12CC3CC(CC(C3)C1)C2 [TROMANTADINE]	> 30 µM	> 30 µM	> 30 µM	> 30 µM	> 30 µM	> 30 µM	> 30 µM	> 30 µM	> 30 µM
CCN(CC)CC(=O)Nc1c(C)cccc1C [LIDOCAINE]		> 10 µM	> 30 µM			> 30 µM		> 30 µM	
CC1=C(C(=O)O)N2C(=O)[C@@H](NC(=O)[C@H](N)C3=CCC=CC3)[C@H]2SC1 [CEPHRADINE]	> 30 µM	> 30 µM	> 30 µM		> 30 µM	> 30 µM	> 30 µM	> 30 µM	> 30 µM
CCc1ccc(C(=O)C(C)CN2CCCCC2)cc1 (stereo not given) [EPERISONE]	> 30 µM	> 30 µM	> 30 µM	> 30 µM		> 30 µM	1.57 µM	> 30 µM	
CCC(=O)O[C@H](CC(=O)O)C[N+](C)(C)C [LEVOCARNITINE PROPIONATE]	> 30 µM	> 30 µM	> 30 µM		> 30 µM	> 30 µM	> 30 µM	> 30 µM	> 30 µM
CNCCc1ccccn1 [BETAHISTINE]		> 30 µM	> 30 µM	> 30 µM		> 30 µM	> 30 µM	> 30 µM	> 30 µM
CC(=O)OCC(=O)[C@@]1(O)CC[C@H]2[C@@H]3CCC4=CC(=O)CC[C@]4(C)[C@@]3(F)[C@@H](O)C[C@@]21C [FLUDROCORTISONE ACETATE]	> 30 µM	> 30 µM	> 30 µM	> 30 µM		> 30 µM	> 30 µM	> 30 µM	> 30 µM
NS(=O)(=O)c1ccc(N2CCCCS2(=O)=O)cc1	> 30 µM	> 30 µM			> 30 µM	> 30 µM	> 30 µM	> 30 µM	> 30 µM
COc1ccc2c3c1O[C@H]1C(=O)CC[C@H]4[C@@H](C2)N(C)CC[C@]314 [HYDROCODONE]	> 10 µM	> 30 µM	> 30 µM	> 30 µM	> 10 µM	> 30 µM	> 30 µM	> 30 µM	
CCCCOC(=O)c1ccc(N)cc1 [BUTAMBEN]	> 30 µM	> 30 µM	> 30 µM	> 30 µM		> 30 µM	> 30 µM	> 30 µM	> 30 µM
O=C(O)c1ccc2nc(-c3cc(Cl)cc(Cl)c3)oc2c1	> 30 µM	> 30 µM	> 30 µM	> 30 µM	> 30 µM	> 30 µM	> 30 µM	> 30 µM	
COc1nc(C)nc(Cl)c1N=C1NCCN1 [MOXONIDINE]	> 30 µM	> 30 µM				> 30 µM	> 30 µM	> 30 µM	> 30 µM
CN1CCCN=C1/C=C/c1cccc(O)c1 [OXANTEL]	> 30 µM	> 30 µM		> 30 µM	> 30 µM	> 30 µM	6.2 µM	> 30 µM	> 30 µM
